# Data taken from publication PMC6946680, “Modulation of brain cation-Cl^− cotransport via the SPAK kinase inhibitor ZT-1a” (Nature Communications, 2020).
# Values joined by “and” are separate entries in the source; they are usually repeats but may differ in a detail not shown here. Equal values may be shown once. “Also recorded” adds a separate entry of the source.
# Columns and labels:
# NCC pThr46/50/55/60 = assay: Pharmacodynamic study, NCC phosphorylation in kidney of naive mice; format: in vivo, mouse; settings: Fig S8b (kidney)
# Description: (§1) To define ZT-1a efficacy in naive mice in vivo, we examined phosphorylation of SPAK, NKCC1, and NCC in kidney, and phosphorylation of SPAK, NKCC1, and KCC3 in brain, after intraperitoneal (i.p.) administration of either ZT-1a (10, 30, 50, and 100 mg/kg) or Closantel (50 mg/kg as a reference). […]
# (§2) 5. Pharmacodynamic (PD) study
# (§3) Male C57BL/6j wild-type mice (6 weeks old, Charles River Laboratories Edinburgh UK) were treated with ZT-1a (in DMSO, Sigma) by subcutaneous injection at doses of 0, 3, 10, 30, 50 and 100 mg/kg. 50 mg/kg Closantel was administered as a comparative control. Vehicle control mice were treated with an equal volume of DMSO solution. One hour after administration, mice were sacrificed by cervical dislocation, and kidney and brain tissues were rapidly dissected and snap-frozen in liquid nitrogen. Age- […]
# (§4) free conditions at the University of Dundee (UK) as described in our recent study1. Animal experiments and breeding were approved by the University of Dundee ethical committee and performed under a […]
# (§5) Policy on the Care, Welfare and Treatment of Animals, and regulations set by the University of Dundee and the U.K. Home Office. […]
# (§6) Brain and kidney tissues were collected at 60 min post injection, and proteins subjected to immunoblot were probed with antibodies specific for phosphorylated forms of SPAK,
# [1] = test system: regional cerebral blood flow; assay: Regional cerebral blood flow by laser speckle contrast imaging after tMCAO; format: in vivo, mouse; settings: for % CBF: single mice
# Description: Regional cerebral blood flow was measured using a two-dimensional laser speckle contrast analysis system (PeriCam PSI High Resolution with PIMSoft, Perimed)[65]. Isoflurane-anesthetized mice were head-fixed using stereotaxic equipment during imaging. The skin was retracted to expose the intact skull. Images were taken at 19 frames/second with averaging. Average signal intensity was taken from fixed-size (0.5-mm^2) regions of interest drawn over the parietal bone plate on the ipsi (IL)- and contralateral (CL) sides. Percent perfusion values were taken in comparison with the mean values of the pre-ischemic ipsilateral side. Five consecutive images at each time period per animal were averaged for analysis. […]
# cerebral blood flow (rCBF) in ischemic mice. a and d Representative two-dimensional laser speckle contrast images of rCBF. Vehicle (DMSO), ZT-1a (A, 2.5 mg/kg), or Closantel (D, 1.25 mg/kg, i.p.) was administered i.p. at 3 hr and again at 8 hr post-reperfusion after MCAO. Pseudocolor scale bar indicates relative signal intensity. b and e No changes of rCBF were detected in the non-ischemic […]
# contralateral (CL) hemispheres of vehicle-control or ZT-1a-treated (b) or Closantel-treated mice (e).
# Data are mean ± SD, n = 3. c and f Similar reductions and recoveries of rCBF in the ischemic ipsilateral hemispheres (IL) were detected in the ZT-1a-treated (c) or Closantel-treated ischemic mice (f), and neither differed from vehicle-injected mice. Data are mean ± SEM, n = 3.
# KCC3 pThr1048 = assay: Immunoblot of KCC site 2 phosphorylation (KCC3 Thr1048) in HEK-293 cells transfected with FLAG-KCC3; format: cell-based, human; settings: for T1007/KCC2 band intensity ratio: single replicates
# [2] = Immunoblot of KCC site 1 phosphorylation (KCC3 Thr991) in HEK-293 cells transfected with FLAG-KCC3; format: cell-based, human
# SPAK phosphorylation = assay: Pharmacodynamic study, SPAK phosphorylation in brain of naive mice; format: in vivo, mouse; settings: Fig S8a (brain)
# Description: as §1, §2, §3, §4, §5, §6
compound,measurement,setting,value
"Cc1cc(C(C#N)c2ccc(Cl)cc2)c(Cl)cc1NC(=O)c1cc(Cl)ccc1O (stereo not shown) [ZT-1a, 5-chloro-N-(5-chloro-4-((4-chlorophenyl)(cyano)methyl)-2-methylphenyl)-2-hydroxybenzamide]",pTh46.50.55 / NCC,NCC pThr46/50/55/60; 30 mg/kg,2.61 and 1.78 and 2.06 and 1.98
same,pTh60 / NCC,NCC pThr46/50/55/60; 30 mg/kg,1.05 and 0.97 and 0.9 and 1.01
same,pTh46.50.55 / NCC,NCC pThr46/50/55/60; 50 mg/kg,0.4 and 0.7 and 0.69 and 0.55
same,pTh46.50.55 / NCC,NCC pThr46/50/55/60; 100 mg/kg,0.68 and 0.46 and 0.41
same,% CBF,"[1]; Fig S10b/S10e, Pre",100%
same,% CBF,"[1]; Fig S10b/S10e, Reperfusion 10 min",99% and 109% and 96%
same,% CBF,"[1]; Fig S10b/S10e, Reperfusion 20 min",87% and 110% and 86%
same,% CBF,"[1]; Fig S10b/S10e, Reperfusion 3 h",120% and 108% and 100%
same,% CBF,"[1]; Fig S10b/S10e, Reperfusion 4 h",119% and 117% and 112%
same,% CBF,"[1]; Fig S10b/S10e, Reperfusion 24 h",106% and 104% and 114%
same,% CBF,"[1]; Fig S10b/S10e, mcao 10 min",78% and 99% and 105%
same,% CBF,"[1]; Fig S10b/S10e, mcao 20min",76% and 107% and 98%
same,% CBF,"[1]; Fig S10b/S10e, mcao 50 min",104% and 96%
same,% CBF,"[1]; Fig S10c/S10f, Pre",100%
same,% CBF,"[1]; Fig S10c/S10f, Reperfusion 10 min",70% and 72% and 78%
same,% CBF,"[1]; Fig S10c/S10f, Reperfusion 20 min",75% and 66% and 82%
same,% CBF,"[1]; Fig S10c/S10f, Reperfusion 3 h",84% and 102% and 81%
same,% CBF,"[1]; Fig S10c/S10f, Reperfusion 4 h",75% and 87% and 86%
same,% CBF,"[1]; Fig S10c/S10f, Reperfusion 24 h",83% and 101% and 109%
same,% CBF,"[1]; Fig S10c/S10f, mcao 10 min",35% and 30% and 25%
same,% CBF,"[1]; Fig S10c/S10f, mcao 20min",32% and 31% and 24%
same,% CBF,"[1]; Fig S10c/S10f, mcao 50 min",30% and 27% and 22%
same,regional cerebral blood flow (rCBF),"[1]; within the 24-h post-stroke period, ischemic mice",does not affect regional cerebral blood flow; also recorded: unaffected
same,T1007/KCC2 band intensity ratio,"KCC3 pThr1048; Hypotonic low Cl, 1 uM",0.223 and 0.282 and 0.213 and 0.243
same,T1007/KCC2 band intensity ratio,"KCC3 pThr1048; Hypotonic low Cl, 3 uM",0.041 and 0.093 and 0.036 and 0.063
same,T1007/KCC2 band intensity ratio,"KCC3 pThr1048; Hypotonic low Cl, 10 uM",0.027 and 0.033 and 0.023 and 0.03
same,T1007/KCC2 band intensity ratio,"KCC3 pThr1048; Isotonic control, 1 uM",0.174 and 0.099 and 0.126 and 0.132
same,T1007/KCC2 band intensity ratio,"KCC3 pThr1048; Isotonic control, 3 uM",0.134 and 0.118 and 0.103 and 0.121
same,T1007/KCC2 band intensity ratio,"KCC3 pThr1048; Isotonic control, 10 uM",0.09 and 0.069 and 0.044 and 0.053
same,KCC3 pThr1048 / KCC3,"KCC3 pThr1048; ZT-1a 1 uM, Fig S4b",0.35 and 0.401 and 0.302 and 0.261
same,T906/KCC2 band intensity ratio,"[2]; Hypotonic low Cl, 1 uM, single replicates",0.214 and 0.239 and 0.189 and 0.203
same,T906/KCC2 band intensity ratio,"[2]; Hypotonic low Cl, 3 uM, single replicates",0.058 and 0.074 and 0.03 and 0.063
same,T906/KCC2 band intensity ratio,"[2]; Hypotonic low Cl, 10 uM, single replicates",0.03 and 0.034 and 0.02 and 0.026
same,T906/KCC2 band intensity ratio,"[2]; Isotonic control, 1 uM, single replicates (Fig 2 source data)",0.356 and 0.264 and 0.316 and 0.279
same,T906/KCC2 band intensity ratio,"[2]; Isotonic control, 3 uM, single replicates",0.166 and 0.176 and 0.153 and 0.142
same,T906/KCC2 band intensity ratio,"[2]; Isotonic control, 10 uM, single replicates",0.065 and 0.041 and 0.054 and 0.049
same,pSer373 / SPAK,SPAK phosphorylation; 10 mg/kg,0.64 and 0.68 and 0.52 and 0.61
same,pSer373 / SPAK,SPAK phosphorylation; 30 mg/kg,0.55 and 0.6 and 0.56 and 0.52
same,pSer373 / SPAK,SPAK phosphorylation; 50 mg/kg,0.56 and 0.65 and 0.61 and 0.53
same,pSer373 / SPAK,SPAK phosphorylation; 100 mg/kg,0.67 and 0.54 and 0.58 and 0.5
